{"source": "paper PMC7070036", "about": "“An amber obligate active site-directed ligand evolution technique for phage display” (Nature Communications, 2020)", "key": {"SIRT2 [1]": {"target": "T1, SIRT2 (Homo sapiens, UniProt Q8IXJ6)", "T1 sequence (Q8IXJ6 1-389)": "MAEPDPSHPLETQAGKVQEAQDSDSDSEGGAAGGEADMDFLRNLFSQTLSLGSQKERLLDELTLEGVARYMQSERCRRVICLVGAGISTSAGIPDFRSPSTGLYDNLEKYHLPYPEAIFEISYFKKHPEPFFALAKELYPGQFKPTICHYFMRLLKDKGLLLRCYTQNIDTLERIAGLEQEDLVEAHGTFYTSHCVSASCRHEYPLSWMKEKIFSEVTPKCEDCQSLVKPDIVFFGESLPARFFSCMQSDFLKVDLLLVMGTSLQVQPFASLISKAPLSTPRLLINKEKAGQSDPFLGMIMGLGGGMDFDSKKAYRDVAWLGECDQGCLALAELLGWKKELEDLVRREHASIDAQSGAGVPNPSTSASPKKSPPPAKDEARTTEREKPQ", "experiment": "SIRT2 inhibition assay for thiomyristoyl peptides", "type": "biochemical", "protocol": "Assays were performed in 40-µL volumes at 37 °C in black, 384-well plates. […] Following incubation, the reaction started with the addition of the fluorogenic substrate (5 µM), and product formation was monitored by measuring the fluorescence intensity every 20 s for 5 min (SIRT2) in a BioTek Synergy H1 microplate reader at λex = 320 nm and λem = 408 nm (gain = 130 and read height = 7 mm). Initial rates were determined using the plot of fluorescence vs. time for linear portions of each curve. IC50 values were then determined using GraphPad Prism to fit a nonlinear regression to the normalized rates vs. inhibitor concentration."}, "SIRT2 [2]": {"target": "T1, SIRT2", "experiment": "Continuous fluorogenic sirtuin inhibition assay, SIRT2 (tBuK peptides, TB)", "type": "biochemical", "protocol": "The continuous assay for comparing isoform specificity of S2P04 was performed using the universal fluorogenic sirtuin substrate described by Schuster et al.[41]. Briefly, the inhibition reactions were performed in 50-µL volumes at 37 °C in black, half-area, 96-well plates. The sirtuin enzyme (0.25 µM) was preincubated with different concentrations of the peptide S2P04 (0.0064–50 µM for SIRT1 and SIRT2, 0.5–100 µM for SIRT3) or TB (0.16–150 µM for SIRT1–SIRT3), and 1 mM NAD^+ in assay buffer (20 mM Tris, pH 7.8, 150 mM NaCl, 5 mM MgCl2, and 1 mM DTT) for 15 min. Following incubation, the reaction started with the addition of the fluorogenic substrate (5 µM), and product formation was monitored by measuring the fluorescence intensity every 20 s for 5 min (SIRT2) or 30 min (SIRT1 and SIRT3) in a BioTek Synergy H1 microplate reader at λex = 320 nm and λem = 408 nm (gain = 130 and read height = 7 mm). Initial rates of product formation were determined by a linear regression of the plot of fluorescence intensity vs. time and normalized relative to 0% (max inhibitor) and 100% (no inhibitor) controls. The assay was repeated to determine the IC50 values of all BuK peptides for SIRT2. IC50 values were determined by nonlinear regression of the plot of the normalized initial rate vs. inhibitor concentration using GraphPad Prism. The determined IC50 values are provided in Supplementary Table 2, and inhibition curves can be seen in Supplementary Fig. 20."}}, "note": "Several values for one entry are separate records, joined by “and”; a condition that tells them apart may be missing. Equal values may be shown once. Starred links: 1 amine or outer side, 2 acyl side, 3 side chain; linkers in the order of their positions; H or OH if unused. Non-standard residues stand in square brackets, D forms with d. Residues, ends and D or L forms follow the SMILES beside them. Lys(thiomyristoyl) = CCCCCCCCCCCCCC(=S)NCCCC[C@H](N)C(=O)O; X1 = CCCC(=S)NCCCC[C@H](N[*:1])C(=O)[*:2]; Abu = CC[C@H](N)C(=O)O"}
{"smiles": "CCCCCCCCCCCCCC(=S)NCCCC[C@H](NC(=O)[C@@H](NC(=O)[C@@H](NC(=O)[C@@H](N)CC)[C@@H](C)O)C(C)C)C(=O)N[C@H](C(N)=O)[C@@H](C)CC", "note": "[S2P04(Abu)-5-tMyK] (H-[Abu]TV[Lys(thiomyristoyl)]I-NH2)", "values": [{"measurement": "IC50", "setting": "SIRT2 [1]; 10 nM SIRT2, 15 min preincubation, 5 µM substrate, n = 2", "value": "18 ± 6", "unit": "nM"}, {"measurement": "activity at 0.000460773 µM", "setting": "SIRT2 [1]; inhibitor 0.460773 nM", "value": 83.3, "unit": "%"}, {"measurement": "%Activity, SIRT2", "setting": "SIRT2 [1]; inhibitor 0.460773 nM, listed as S2P04 (Abu)-tMyK, 0.000460773 µM", "value": 75.1766, "unit": "%"}, {"measurement": "activity at 0.000921546 µM", "setting": "SIRT2 [1]; inhibitor 0.921546 nM", "value": 84.4, "unit": "%"}, {"measurement": "%Activity, SIRT2", "setting": "SIRT2 [1]; inhibitor 0.921546 nM, listed as S2P04 (Abu)-tMyK, 0.000921546 µM", "value": 83.3137, "unit": "%"}, {"measurement": "activity at 0.00184309 µM", "setting": "SIRT2 [1]; inhibitor 1.84309 nM", "value": 92.7, "unit": "%"}, {"measurement": "%Activity, SIRT2", "setting": "SIRT2 [1]; inhibitor 1.84309 nM, listed as S2P04 (Abu)-tMyK, 0.00184309 µM", "value": 107.334, "unit": "%"}, {"measurement": "activity at 0.00368618 µM", "setting": "SIRT2 [1]; inhibitor 3.68618 nM", "value": 92.3, "unit": "%"}, {"measurement": "%Activity, SIRT2", "setting": "SIRT2 [1]; inhibitor 3.68618 nM, listed as S2P04 (Abu)-tMyK, 0.00368618 µM", "value": 86.7202, "unit": "%"}, {"measurement": "%Activity, SIRT2", "setting": "SIRT2 [1]; inhibitor 7.37237 nM, listed as S2P04 (Abu)-tMyK, 0.00737237 µM", "value": "106.229% and 65.8212%"}, {"measurement": "activity at 0.0147447 µM", "setting": "SIRT2 [1]; inhibitor 14.7447 nM", "value": 70.6, "unit": "%"}, {"measurement": "%Activity, SIRT2", "setting": "SIRT2 [1]; inhibitor 14.7447 nM, listed as S2P04 (Abu)-tMyK, 0.0147447 µM", "value": 50.6621, "unit": "%"}, {"measurement": "activity at 0.058979 µM", "setting": "SIRT2 [1]; inhibitor 58.979 nM", "value": 27.7, "unit": "%"}, {"measurement": "%Activity, SIRT2", "setting": "SIRT2 [1]; inhibitor 58.979 nM, listed as S2P04 (Abu)-tMyK, 0.058979 µM", "value": 13.9723, "unit": "%"}, {"measurement": "activity at 0.117958 µM", "setting": "SIRT2 [1]; inhibitor 117.958 nM", "value": 20.7, "unit": "%"}, {"measurement": "%Activity, SIRT2", "setting": "SIRT2 [1]; inhibitor 117.958 nM, listed as S2P04 (Abu)-tMyK, 0.117958 µM", "value": 15.5064, "unit": "%"}, {"measurement": "%Activity, SIRT2", "setting": "SIRT2 [1]; inhibitor 235.916 nM, listed as S2P04 (Abu)-tMyK, 0.235916 µM", "value": "2.564% and 11.5055%"}, {"measurement": "%Activity, SIRT2", "setting": "SIRT2 [1]; inhibitor 471.832 nM, listed as S2P04 (Abu)-tMyK, 0.471832 µM", "value": "2.292% and -2.292%"}, {"measurement": "%Activity, SIRT2", "setting": "SIRT2 [1]; inhibitor 943.663 nM, listed as S2P04 (Abu)-tMyK, 0.943663 µM", "value": "6.074% and 14.5226%"}]}
{"smiles": "CCCCCCCCCCCCCC(=S)NCCCC[C@H](NC(=O)OCc1ccccc1)C(=O)Nc1ccccc1", "note": "[TM, reference compound]", "values": [{"measurement": "activity at 0.000488281 µM", "setting": "SIRT2 [1]; inhibitor 0.488281 nM", "value": 101, "unit": "%"}, {"measurement": "%Activity, SIRT2", "setting": "SIRT2 [1]; inhibitor 0.488281 nM, 0.000488281 µM", "value": 98.9615, "unit": "%"}, {"measurement": "activity at 0.000976562 µM", "setting": "SIRT2 [1]; inhibitor 0.976562 nM", "value": 72.4, "unit": "%"}, {"measurement": "%Activity, SIRT2", "setting": "SIRT2 [1]; inhibitor 0.976562 nM, 0.000976562 µM", "value": "83.3212% and 86.8904% and 88.3827%"}, {"measurement": "activity at 0.00195312 µM", "setting": "SIRT2 [1]; inhibitor 1.95312 nM", "value": 90.7, "unit": "%"}, {"measurement": "%Activity, SIRT2", "setting": "SIRT2 [1]; inhibitor 1.95312 nM, 0.00195312 µM", "value": 86.75, "unit": "%"}, {"measurement": "%Activity, SIRT2", "setting": "SIRT2 [1]; inhibitor 3.90625 nM, 0.00390625 µM", "value": "101.659% and 86.3725% and 107.923%"}, {"measurement": "%Activity, SIRT2", "setting": "SIRT2 [1]; inhibitor 7.8125 nM, 0.0078125 µM", "value": "82.8428% and 60.4593% and 105.944% and 110.889%"}, {"measurement": "activity at 0.015625 µM", "setting": "SIRT2 [1]; inhibitor 15.625 nM", "value": 83.3, "unit": "%"}, {"measurement": "%Activity, SIRT2", "setting": "SIRT2 [1]; inhibitor 15.625 nM, 0.015625 µM", "value": 84.6885, "unit": "%"}, {"measurement": "activity at 0.0625 µM", "setting": "SIRT2 [1]; inhibitor 62.5 nM", "value": 60.2, "unit": "%"}, {"measurement": "%Activity, SIRT2", "setting": "SIRT2 [1]; inhibitor 62.5 nM, 0.0625 µM", "value": 43.9326, "unit": "%"}, {"measurement": "activity at 0.125 µM", "setting": "SIRT2 [1]; inhibitor 125 nM", "value": 22.5, "unit": "%"}, {"measurement": "%Activity, SIRT2", "setting": "SIRT2 [1]; inhibitor 125 nM, 0.125 µM", "value": 19.1421, "unit": "%"}, {"measurement": "activity at 0.25 µM", "setting": "SIRT2 [1]; inhibitor 250 nM", "value": 12.4, "unit": "%"}, {"measurement": "%Activity, SIRT2", "setting": "SIRT2 [1]; inhibitor 250 nM, 0.25 µM", "value": 20.6592, "unit": "%"}, {"measurement": "%Activity, SIRT2", "setting": "SIRT2 [1]; inhibitor 500 nM, 0.5 µM", "value": "1.575% and -2.11% and 0.5358%"}, {"measurement": "activity at 1 µM", "setting": "SIRT2 [1]; inhibitor 1000 nM", "value": 5.56, "unit": "%"}, {"measurement": "%Activity, SIRT2", "setting": "SIRT2 [1]; inhibitor 1000 nM, 1 µM", "value": 5.083, "unit": "%"}]}
{"smiles": "CCCC(=S)NCCCC[C@H](NC(=O)[C@H](Cc1ccccc1)NC(=O)[C@@H](NC(=O)[C@@H](N)CS)[C@@H](C)O)C(=O)N[C@H](C(=O)N1CCC[C@H]1C(=O)N[C@H](C(N)=O)[C@@H](C)O)C(C)C", "note": "[S2P07-tBuK] (H-CTF[X1]VPT-NH2)", "values": [{"measurement": "IC50", "setting": "SIRT2 [2]; 0.25 µM SIRT2, 1 mM NAD+, 5 µM fluorogenic substrate, 15 min preincubation, n = 2, read-out: IC50", "value": "101 ± 13", "unit": "nM"}, {"measurement": "%Activity, SIRT2", "setting": "SIRT2 [2]; inhibitor 0.0064 µM, single trials, 0.0064 µM", "value": "98.946% and 68.389%"}, {"measurement": "activity at 0.032 µM", "setting": "SIRT2 [2]; inhibitor 0.032 µM, single trials", "value": 87.5, "unit": "%"}, {"measurement": "%Activity, SIRT2", "setting": "SIRT2 [2]; inhibitor 0.032 µM, single trials, 0.032 µM", "value": 67.907, "unit": "%"}, {"measurement": "activity at 0.5 µM", "setting": "SIRT2 [2]; inhibitor 0.5 µM, single trials", "value": 9.45, "unit": "%"}, {"measurement": "%Activity, SIRT2", "setting": "SIRT2 [2]; inhibitor 0.5 µM, single trials, 0.5 µM", "value": 9.1144, "unit": "%"}, {"measurement": "activity at 1 µM", "setting": "SIRT2 [2]; inhibitor 1 µM, single trials", "value": 6.71, "unit": "%"}, {"measurement": "%Activity, SIRT2", "setting": "SIRT2 [2]; inhibitor 1 µM, single trials, 1 µM", "value": 5.6905, "unit": "%"}, {"measurement": "activity at 2 µM", "setting": "SIRT2 [2]; inhibitor 2 µM, single trials", "value": 4.93, "unit": "%"}, {"measurement": "%Activity, SIRT2", "setting": "SIRT2 [2]; inhibitor 2 µM, single trials, 2 µM", "value": 4.4406, "unit": "%"}, {"measurement": "%Activity, SIRT2", "setting": "SIRT2 [2]; inhibitor 4 µM, single trials, 4 µM", "value": "0.3859% and 2.3975%"}, {"measurement": "%Activity, SIRT2", "setting": "SIRT2 [2]; inhibitor 50 µM, single trials, 50 µM", "value": "0.4825% and -0.01509%"}]}
